Test results from US6497904B2, “Treatment of oncologic tumors with an injectable formulation of a golgi apparatus disturbing agent” (priority 1998, dated 2002).

Key:
[1] = system: Erlich tumors; test: In vivo efficacy (delay in tumor growth, T/C) in Balb/C mice carrying Erlich tumors
Description: For each of the following examples, the pharmaceutical formulations were prepared just prior to use. Various amounts of brefeldin A (mg of drug/kg animal's body weight) were weighed out and varying amounts of solvent was used to mix the drug. The mixtures were either vortexed (mechanical mixing) or sonicated until drug was either completely soluble or only a very small amount appeared to settle in the bottom the test tube. Chitin was then added and the mixture was sonicated.
Six days following inoculation, the mice normally grew a tumor on each flank, ranging in size from 100 to 120 mm^3. The mice (average weight=25 g) were randomized and separated into groups. Each tumor was then measured and the tumor volume calculated and recorded. In experimental groups, one tumor on each mouse was treated with the appropriate agent (drug versus drug in formulation) with an injection volume of 50 ul using a 22G½ needle. The control group was left untreated.
Antitumor activity was determined by inhibition of tumor growth and survival rate. Each tumor was measured two to three times per week. In nude mice, tumors were measured for 10 days or until mice survived. In Balb/C tumors were measured for up to 20 days following treatment. The volume of the tumor was calculated and recorded. Tumor volume data is analyzed by using simple regression model. […]
Balb/C mice are divided into groups and given treatments according to Table 4. Mice are observed daily to evaluate lethal toxicity and tumors are measured on alternate days for 20 days. […]

[2] = system: Balb/C mice; test: Survival of Balb/C mice following treatment (deaths due to toxicity); format: in vivo; details: Example 3
Source text: Balb/C mice are divided into groups and given treatments according to Table 3. Mice are observed daily for 25 days for deaths due to toxicity.
Balb/C mice are divided into groups and given treatments according to Table 7.

In the case of C[C@H]1CCC/C=C/[C@@H]2C[C@H](O)C[C@H]2[C@H](O)/C=C/C(=O)O1 [brefeldin A], the “T/C ratio of delay in tumor growth” value ([1]; Example 2, groups 5, 6, and 7, given with the solvent (DMA 5-20 μl), no chitin) was 1.25-1.75, the “T/C ratio of delay in tumor growth” value ([1]; Example 2, groups 8, 9, and 10, delivered with DMA (5-20 μl) and chitin) was 2.00-2.75 and the “T/C ratio of delay in tumor growth” value ([1]; Example 4, groups 4, 5, and 6, BFA 2 mg delivered with DMA and chitin) was 2.50-2.85. The “T/C ratio of delay in tumor growth” value ([1]; Example 4, groups 7, 8, and 9, decreased dose of brefeldin A (0.5 mg) with DMA and chitin) was 2.30-2.55, the toxicity to mice ([2]; high doses (80 mg/kg and 40 mg/kg) with DMA, groups 4 and 8) was “most toxic” and the toxicity to mice ([2]; when chitin is added to the formulation (with DMA)) was “less toxicity”.
